The values that follow come from article PMC4109893 (MedChemComm, 2014).

SMILES strings stand for the structures. Where two headings read alike, the source gives them in different places.

The subject of this test is mammalian GPAT. Description: GPAT inhibition in vitro. It counts as biochemical. Conditions: for IC50: read-out: IC50 (µM) ± SD; for fold increase in inhibitory activity compared to 1c: relative to 1c; for fold decrease in inhibition compared to corresponding linker-free analog: 15a vs 13d, 18b vs 12h.

In the case of `CCCCCCCCS(=O)(=O)Nc1ccccc1C(=O)O` [Compound 1c, 2-(octanesulfonamido)benzoic acid], the “inhibitory activity against GPAT (in words)” value (in vitro) is given as “comparable to 1b”.

Take `CCCCCCCCS(=O)(=O)Nc1cc(-c2ccccc2O)ccc1C(=O)O` [Compound 12k]: the IC50 (GPAT inhibition by 4-substituted derivatives (Table 1)) was 63.1 ± 5.5 µM.

`CCCCCCCCS(=O)(=O)Nc1ccc(-c2ccccc2Cl)cc1C(=O)O` [Compound 13a]: the IC50 (GPAT inhibition by 5-substituted derivatives (Table 2)) stood at 14.4 ± 1.3 µM.

Turning to `CCCCCCCCS(=O)(=O)Nc1ccc(-c2cccc(Cl)c2)cc1C(=O)O` [Compound 13b], the “fold increase in inhibitory activity compared to 1c” value is listed as 2.9 fold.

With `CCCCCCCCS(=O)(=O)Nc1ccc(-c2ccc(CCCC)cc2)cc1C(=O)O` [Compound 13d], the “fold increase in inhibitory activity compared to 1c” value worked out at 2.9 fold.

`CCCCCCCCS(=O)(=O)Nc1ccc(-c2ccccc2-c2ccccc2)cc1C(=O)O` [Compound 13e]: the “fold increase in inhibitory activity compared to 1c” value is given as 2.5 fold.

`CCCCCCCCS(=O)(=O)Nc1cc(C(=O)c2ccc(-c3ccccc3)cc2)ccc1C(=O)O` [Compound 14b, 4-([1,1'-biphenyl]-4-carbonyl)-2-(octanesulfonamido)benzoic acid]: the “fold increase in inhibitory activity compared to 1c” value was determined as 3 fold. Besides, the “fold more potent inhibition compared to linker-free analog 13f” value (relative to 13f) worked out at 2 fold.

Turning to `CCCCCCCCS(=O)(=O)Nc1ccc(C(=O)c2ccc(CCCC)cc2)cc1C(=O)O` [Compound 15a], the “fold decrease in inhibition compared to corresponding linker-free analog” value was 3.5 fold.

As to `CCCCCCCCS(=O)(=O)Nc1cc(CCc2ccc(OC)cc2)ccc1C(=O)O` [Compound 18b], the “fold decrease in inhibition compared to corresponding linker-free analog” value came out at 3.2 fold.
